Experimental data from paper PMC10307939 (Pharmacology Research & Perspectives, 2023).
Entries after “also recorded” stand apart in the source; their conditions may differ. Structures can show the parent of a compound that is named as a salt.

Tests used:
male and female ICR mice [1] = assay: Horizontal locomotor activity, 60‐min session; type: in vivo, mouse; settings: for Effect on locomotor activity: SC, drug alone; for Emax / ED50: Mus musculus, sc; for Emax: 1 h, read-out: E max (95%CL), % Methadone E max; for ED50: read-out: ED50 (95% CL)
[2] = biological target: T1, mouse kappa opioid receptor (Mus musculus, UniProt P33534); assay: Radioligand competition binding, mKOR‐CHO membranes; settings: for MOR/KOR (fold selectivity for MOR over KOR): K i at KOR divided by K i at MOR
[3] = biological target: T2, human delta‐opioid receptor (Homo sapiens, UniProt P41143); assay: Radioligand competition binding, hDOR‐CHO membranes; settings: for MOR/DOR (fold selectivity for MOR over DOR): K i at DOR divided by K i at MOR
[4] = biological target: T1, mouse kappa opioid receptor; assay: biochemical; type: biochemical; settings: for Emax: read-out: KOR E max
[5] = biological target: T2, human delta‐opioid receptor; assay: Ligand‐stimulated [35S]GTPγS binding, hDOR‐CHO membranes; type: biochemical; settings: for Emax: read-out: DOR E max
male and female ICR mice [6] = assay: Naltrexone antagonism of test‐drug locomotor activation; type: in vivo, mouse; settings: 1.0 mg/kg naltrexone SC 10 min before test drug
mouse mu‐opioid receptor [7] = biological target: T3, mouse mu‐opioid receptor (Mus musculus, UniProt P42866); assay: Radioligand competition binding, mMOR‐CHO membranes; settings: for Ki: MOR K i, [3H]naloxone, mMOR‐CHO membranes, mean ± SEM (n = 3–6)
mouse mu‐opioid receptor [8] = biological target: T3, mouse mu‐opioid receptor; assay: Ligand‐stimulated [35S]GTPγS binding, mMOR‐CHO membranes; type: biochemical; settings: for Emax: read-out: MOR E max
male and female ICR mice [9] = assay: Test‐drug antagonism of morphine locomotor activation; type: in vivo, mouse; settings: test drug SC 10 min before 32 mg/kg SC morphine

CCC(=O)C(CC(C)N(C)C)(c1ccccc1)c1ccccc1 (racemic) [Methadone, (±) Methadone HCl, reference compound]
Total locomotor counts (male and female ICR mice [1]; 32 mg/kg SC, 60‐min session): 7500.1 counts | Mean maximum increase in locomotor counts (male and female ICR mice [1]; 32 mg/kg vs. saline vehicle): 5149.8 counts | Effect on locomotor activity (male and female ICR mice [1]): dose‐dependent increase in locomotor activity

C=C[C@@H]1[C@H]2CCC[C@]1(c1cccc(O)c1)CCN2CCc1ccccc1 [DC‐1‐76.1, 3‐((1R,5S,9S)‐2‐phenethyl‐9‐vinyl‐2‐azabicyclo[3.3.1]nonan‐5‐yl)phenol]
Ki [2]: 0.0529 ± 0.00111 µM | MOR/KOR (fold selectivity for MOR over KOR) [2]: 27.7 fold | Ki [3]: 3.39 ± 0.268 µM | MOR/DOR (fold selectivity for MOR over DOR) [3]: 1773.3 fold | KOR E max [4]: No stim | EC50 [5]: 1.16 ± 0.214 µM | Emax [5]: -0.7 ± 2.12% | Emax (male and female ICR mice [1]): 34.3% | ED50 (male and female ICR mice [1]): 0.72 mg/kg | Effect of naltrexone pretreatment on locomotor‐activating dose of test drug (male and female ICR mice [6]): significantly attenuated

C=C[C@H]1[C@H]2CCC[C@]1(c1cccc(O)c1)CCN2CCc1ccccc1 [DC‐1‐76.2, 3‐((1R,5S,9R)‐2‐phenethyl‐9‐vinyl‐2‐azabicyclo[3.3.1]nonan‐5‐yl)phenol]
Ki [2]: 0.044 ± 0.00298 µM | MOR/KOR (fold selectivity for MOR over KOR) [2]: 88.5 fold | Ki [3]: 0.347 ± 0.0456 µM | MOR/DOR (fold selectivity for MOR over DOR) [3]: 698.5 fold | KOR E max [4]: No stim | EC50 [5]: 0.16 ± 0.142 µM | Emax [5]: -6.34 ± 0.78% | Emax (male and female ICR mice [1]): 87.6% | ED50 (male and female ICR mice [1]): 0.47 mg/kg | Effect of naltrexone pretreatment on locomotor‐activating dose of test drug (male and female ICR mice [6]): significantly attenuated

C/C=C\[C@H]1[C@H]2CCC[C@]1(c1cccc(O)c1)CCN2CCc1ccccc1 [DC‐1‐90.2, 3‐((1R,5S,9R)‐2‐phenethyl‐9‐((Z)‐prop‐1‐en‐1‐yl)‐2‐azabicyclo[3.3.1]nonan‐5‐yl)phenol]
Ki [2]: 0.0345 ± 0.00077 µM | MOR/KOR (fold selectivity for MOR over KOR) [2]: 18.8 fold | Ki [3]: 0.43 ± 0.0417 µM | MOR/DOR (fold selectivity for MOR over DOR) [3]: 235.0 fold | KOR E max [4]: No stim | EC50 [5]: 0.253 ± 0.133 µM | Emax [5]: -6.97 ± 0.46%

C/C=C\[C@@H]1[C@H]2CCC[C@]1(c1cccc(O)c1)CCN2CCc1ccccc1 [DC‐1‐128.1, 3‐((1R,5S,9S)‐2‐phenethyl‐9‐((Z)‐prop‐1‐en‐1‐yl)‐2‐azabicyclo [3.3.1]nonan‐5‐yl)phenol]
Ki [2]: 0.0633 ± 0.00743 µM | MOR/KOR (fold selectivity for MOR over KOR) [2]: 112.6 fold | Ki [3]: 0.318 ± 0.047 µM | MOR/DOR (fold selectivity for MOR over DOR) [3]: 565.2 fold | KOR E max [4]: no KOR activation; also recorded: No stim | EC50 [5]: 0.503 ± 0.118 µM | Fold difference in [35S]GTPγS potency, MOR versus DOR ([5]; higher potency at MOR than at DOR): more than 60 fold | Emax [5]: 31.4 ± 2.23% | Emax (male and female ICR mice [1]): 80.1% | ED50 (male and female ICR mice [1]): 0.19 mg/kg | Effect of naltrexone pretreatment on locomotor‐activating dose of test drug (male and female ICR mice [6]): significantly attenuated

CCC[C@H]1[C@@H]2CCC[C@@]1(c1cccc(O)c1)CCN2CCc1ccccc1 [EG‐1‐203, 3‐((1S,5R,9R)‐2‐phenethyl‐9‐propyl‐2‐azabicyclo[3.3.1]nonan‐5‐yl)phenol]
Ki (mouse mu‐opioid receptor [7]): 0.000761 ± 3.1e-05 µM | Ki [2]: 0.0223 ± 0.00466 µM | MOR/KOR (fold selectivity for MOR over KOR) [2]: 29.3 fold | Ki [3]: 0.0665 ± 0.0077 µM | MOR/DOR (fold selectivity for MOR over DOR) [3]: 87.4 fold | EC50 (mouse mu‐opioid receptor [8]): 0.0242 ± 0.0138 µM | Emax (mouse mu‐opioid receptor [8]): 4.79 ± 0.6% | EC50 [4]: 0.125 ± 0.0887 µM | Emax [4]: -3.49 ± 0.67% | EC50 [5]: 0.037 ± 0.0177 µM | Emax [5]: -11.6 ± 3.08% | Emax (male and female ICR mice [1]): 13% | ED50 (male and female ICR mice [1]): 5.42 mg/kg | Effect of test‐drug pretreatment on locomotor‐activating effects of morphine (male and female ICR mice [9]): significantly attenuated

OC/C=C/[C@H]1[C@@H]2CCC[C@@]1(c1cccc(O)c1)CCN2CCc1ccccc1 [EG‐1‐230, 3‐((1S,5R,9R)‐9‐((E)‐3‐hydroxyprop‐1‐en‐1‐yl)‐2‐phenethyl‐2‐azabicyclo[3.3.1]nonan‐5‐yl)phenol]
Ki (mouse mu‐opioid receptor [7]): 0.00422 ± 0.000177 µM | Ki [2]: 0.0459 ± 0.00708 µM | MOR/KOR (fold selectivity for MOR over KOR) [2]: 10.9 fold | Ki [3]: 1.01 ± 0.147 µM | MOR/DOR (fold selectivity for MOR over DOR) [3]: 238.5 fold | EC50 (mouse mu‐opioid receptor [8]): 0.0241 ± 0.012 µM | Emax (mouse mu‐opioid receptor [8]): 0.67 ± 0.79% | EC50 [4]: 0.0207 ± 0.0056 µM | Emax [4]: -3.97 ± 0.65% | EC50 [5]: 0.517 ± 0.366 µM | Emax [5]: -10.6 ± 3.58% | Emax (male and female ICR mice [1]): 2.2% | Effect on locomotor activity (male and female ICR mice [1]): inactive when administered alone | Effect of test‐drug pretreatment on locomotor‐activating effects of morphine (male and female ICR mice [9]): significantly attenuated

OCC[C@H]1[C@@H]2CCC[C@@]1(c1cccc(O)c1)CCN2CCc1ccccc1 [JL‐2‐39, 3‐((1S,5R,9R)‐9‐(2‐hydroxyethyl)‐2‐phenethyl‐2‐azabicyclo[3.3.1]nonan‐5‐yl)phenol]
Ki (mouse mu‐opioid receptor [7]): 0.000394 ± 3.5e-05 µM | Fold higher MOR affinity than DC‐1‐76.1 (mouse mu‐opioid receptor [7]; relative to DC‐1‐76.1): ~ 5 fold | Ki [2]: 0.0171 ± 0.00222 µM | MOR/KOR (fold selectivity for MOR over KOR) [2]: 43.4 fold | Ki [3]: 0.473 ± 0.0412 µM | MOR/DOR (fold selectivity for MOR over DOR) [3]: 1199.2 fold | EC50 (mouse mu‐opioid receptor [8]): 0.00709 ± 0.0037 µM | Emax (mouse mu‐opioid receptor [8]): 13 ± 1.48% | Fold more potent than DC‐1‐76.1 in vitro ([35S]GTPɣS binding, MOR CHO cells) (mouse mu‐opioid receptor [8]; relative to DC‐1‐76.1): ~ 5 fold | KOR E max [4]: No stim | Emax (male and female ICR mice [1]): 87.1% | ED50 (male and female ICR mice [1]): 2.85 mg/kg | Fold less potent than DC‐1‐76.1 in vivo (locomotor activity) (male and female ICR mice [1]; relative to DC‐1‐76.1): ~ 4 fold | Effect of naltrexone pretreatment on locomotor‐activating dose of test drug (male and female ICR mice [6]): significantly attenuated

CN1c2ccccc2C(NCCCCCCC(=O)O)c2ccc(Cl)cc2S1(=O)=O (centres unmarked) [Tianeptine, reference compound]
Ki (mouse mu‐opioid receptor [7]): 0.0782 ± 0.00993 µM | Ki [3]: 2.83 ± 0.416 µM | EC50 (mouse mu‐opioid receptor [8]): 6.44 ± 0.622 µM | Emax (mouse mu‐opioid receptor [8]): 110 ± 3.6% | KOR E max [4]: No stim | Effect of naltrexone pretreatment on locomotor‐activating dose of test drug (male and female ICR mice [6]): significantly attenuated
